Results on 2 molecules are retold here after patent US20250026725A1, “HYDRATE CRYSTAL OF 5-CHLORO-4-(3-CHLORO-4- METHYLPHENYL)-1H-IMIDAZOLE-2-CARBONITRILE” (ISHIHARA SANGYO KAISHA, LTD., priority 2021, published 2025).

Data set [1] in a line: Karl Fischer moisture content measurement (volumetric titration method). Type of data set: physicochemical. Conditions: atmosphere of 25° C., as obtained. As to the method:
The moisture content rates of the hydrate crystals obtained in Production Examples 1 and 2, and the anhydrous crystals used as a raw material in Production Example 1 were measured with a Karl Fischer moisture meter (CA-310, manufactured by Nittoseiko Analytech Co., Ltd.). The test was conducted in conformance with the description in The Japanese Pharmacopoeia, 18th Edition, “2.48 Water Determination (Karl Fischer Method)”, Volumetric titration. The measurement was performed in an atmosphere of 25° C., with the conditions set to a forced delay time of 2 minutes after sample administration, a minimum amount to be titrated of 2 μL, and an end point voltage of 140 mV. More specifically, it was as follows. First, into a measuring flask, methanol for moisture measurement (Aquamicron Dehydrated Solvent GEX, manufactured by Mitsubishi Chemical Corporation) was loaded, and 30 mg of water was added thereto to titrate the mixture with a Karl Fischer reagent (Aquamicron SS-Z, manufactured by Mitsubishi Chemical Corporation). After titration, a titer (mg/mL) of the reagent was determined from the amount titrated. Next, about 0.1 g of a measurement sample was precisely weighed and added into the measuring flask to titrate the mixture with a Karl Fischer reagent. The moisture content (w/w %) in the sample was calculated from the amount titrated and the previously determined titer.

The next data set can be described thus: Drying test. Type of data set: physicochemical. Conditions: 25° C., dried (silica gel), weighing bottle. As for the experimental part:
The hydrate crystal of Production Example 1 was stored at 25° C. under a dried condition (in the presence of silica gel) for a period shown in Table 2. The Karl Fischer moisture content after storage was measured, and the change in moisture content was observed.

Data set [2] can be described thus: Test of triboelectrification properties. Type of data set: physicochemical. Conditions: for Decrease of potential retention rate: at 20 minutes later. As for the experimental part: First, the sample was loaded into a levelled stainless steel petri dish having φ50 mm×a height of 15 mm, and then it was statically eliminated with a static eliminator (STABLO AP, manufactured by SHIMADZU CORPORATION). The surface potential of the sample was measured with a surface electrometer (SV-77A, manufactured by NIPPON STATIC CO., LTD.) that had previously been zero-point adjusted, to confirm that it was statically eliminated (within −1 to +1 kV). Next, the sample surface of the petri dish loaded with the sample was scraped back and forth 20 times with a stainless steel metal plate for 10 seconds to charge the sample surface. After that, the petri dish loaded with the charged sample was placed on a metal plate (30 cm×30 cm) connected with a ground wire. The surface potential of the sample was measured over time for 20 minutes with the above surface electrometer. The triboelectrification properties were evaluated from the initial surface potential. In addition, the retention rate was calculated from the surface potential after 20 minutes and the initial surface potential to evaluate charge attenuation properties. Note that the test was conducted in an electrostatic measurement chamber (Tabai ESPEC CORP.) set to 25° C. and 50% RH, and the surface potential measurement was conducted at a distance of 1 cm from the sample surface.

The next data set is described as follows: Moisture absorption test. Type of data set: physicochemical. Conditions: 60° C./80% RH, paper bag. As to the method: An anhydrous crystal sample was placed in a container (glass weighing bottle or paper bag) in such a manner that it was in direct contact with the damp. […] In addition, a sample for the hydrate crystal (Production Example 1) was also preserved at 60° C./80% RH, and the change in moisture content was observed through the change in weight or Karl Fischer moisture measurement.

Data set [3] has as its system Trichophyton rubrum (ATCCMYA4607). Description: Antifungal activity test, minimum inhibitory concentration (MIC100). Type of data set: cell-based. Conditions: Table 21, same method as Test Example 12, read-out: Minimal fungicidal concentration (MFC100). As to the method:
Trichophyton rubrum was cultured on a Sabouraud medium at 32° C. for 168 hours to form spores. Mycelia were peeled from a medium surface and collected into a tube, physiological saline solution (OTSUKA NORMAL SALINE; containing the equivalent of 9 g of sodium chloride in 1000 mL) was added thereto, and the entire mixture was mixed and dispersed with a disposable loop (Type 1 (1 μL)) to collect a spore suspension containing mycelia. The spore suspension containing mycelia was filtered through a cell strainer (+40 μm). Spores were collected from a filtrate by centrifugation (3500 rpm, 5 minutes), and washed twice with physiological saline to prepare a spore suspension (1×10^6 cells/mL). 10 μL of the spore suspension was inoculated into the Sabouraud medium to which the test compound dissolved in DMSO was added so as to have a predetermined concentration. Trichophyton rubrum was cultured at 32° C. for 72 hours, and then the presence or absence of the development of colonies was examined to determine a minimum inhibitory concentration (MIC100).
A minimum inhibitory concentration (MIC100) for Trichophyton rubrum (ATCCMYA4607) was determined in the same method as in Test Example 12 except that the hydrate crystal (Production Example 2) was used as the compound under test.

With `Cc1ccc(-c2nc(C#N)[nH]c2Cl)cc1Cl` [Hydrate crystal (Production Example 1), 5-chloro-4-(3-chloro-4-methylphenyl)-1H-imidazole-2-carbonitrile], the “Karl Fischer moisture content” value in data set [1] (listed as hydrate crystal of Production Example 1) came out at 6.6 wt %; in the data set “Drying test” (0 days) it was 6.5%; in “Drying test” (14 days), 6.7%; in the data set “Drying test” (29 days) it was 6.7%; in “Drying test” (38 days), 6.7%; in “Drying test” (53 days) it was 6.7%. Also, the Electrification voltage is on record as −3.00 kv in data set [2] (0 minutes after charging, 25° C. and 50% RH); −2.79 kv in data set [2] (20 minutes after charging, 25° C. and 50% RH). The “Decrease of potential retention rate” value in data set [2] (25° C. and 50% RH, listed as hydrate crystal of Production Example 1) is 7%. This molecule displayed a Retention rate in data set [2] (surface potential after 20 minutes vs initial, 25° C. and 50% RH) of 93.0%. In addition, the Moisture content turned out to be 0.1% in “Moisture absorption test” (0 days), 6.7% in “Moisture absorption test” (20 days) and 6.6% in the data set “Moisture absorption test” (61 days). The Weight change in the data set “Moisture absorption test” (4 days) is recorded as 6.4%; in the data set “Moisture absorption test” (7 days) it was 6.4%; in the data set “Moisture absorption test” (14 days) it was 6.5%; in “Moisture absorption test” (20 days) it was 6.5%; in “Moisture absorption test” (29 days) it was 6.5%; in “Moisture absorption test” (40 days), 6.5%. Besides, in the data set “Moisture absorption test” (61 days), the Weight change was found to be 6.5%.
Consider `Cc1ccc(-c2nc(C#N)[nH]c2Cl)cc1Cl` [Hydrate crystal (Production Example 2), 5-chloro-4-(3-chloro-4-methylphenyl)-1H-imidazole-2-carbonitrile], for which, in data set [3], the MFC was 5 µg/mL. The “Karl Fischer moisture content” value in data set [1] (listed as hydrate crystal of Production Example 2) is recorded as 6.7 wt %. The Electrification voltage is on record as −2.30 kv in data set [2] (0 minutes after charging; 25° C. and 50% RH; listed as Hydrate crystal Production Example 2)); −1.98 kv in data set [2] (20 minutes after charging; 25° C. and 50% RH; listed as Hydrate crystal Production Example 2)). In data set [2] (25° C. and 50% RH, listed as hydrate crystal of Production Example 2), the “Decrease of potential retention rate” value is listed as 14%. In data set [2] (surface potential after 20 minutes vs initial; 25° C. and 50% RH; listed as Hydrate crystal Production Example 2)), this molecule returned a Retention rate of 86.1%.
